Laboratory results reported in PubChem BioAssay AID1963831 (Molecular Pharmacology Branch, DTP, NCI, 2024).

Tested on: 889142-216-R-J1-PDC complex spheroid viability
Test: Anticancer human tumor 889142-216-R-J1-PDC patient-derived bladder carcinoma cell line growth inhibition [POLQ]
Details: for IC50: curve of first compound; for viability, T/C: stronger effect = lower value
Procedure: Multicellular complex tumor spheroid response to Polymerase (POL) inhibitors (novobiocin, ART-558, RP6685) in combination with a variety of drugs and investigational agents in selected tumor cell lines
The POL inhibitors (novobiocin, ART-558, and RP6685) were evaluated both individually and in combination with standard of care and investigational anticancer small molecules within a complex spheroid model of solid tumors. . Complex spheroids include a stromal component modeled by human endothelial cells (HUVEC) and fibroblasts modeled by human mesenchymal stem cells (MSCs). The concentration ranges selected for each drug and investigational agent were based upon clinically achievable concentrations if the clinical Cmax of the agent was known.
Compounds. The drugs and investigational agents: novobiocin (NSC847541), ART-558 (NSC835418), RP-6685 (NSC848927), peposertib (NSC802822), ceralasertib (NSC780249), elimusertib (NSC800525), camonsertib (NSC841442), AZD-1390 (NSC803789), olaparib (NSC753686), talazoparib (NSC767125), rucaparib (NSC756644), sotorasib (NSC818433), MRTX-1133 (NSC836407), SN-38 (NSC673596), topotecan (NSC609699), epotoside (NSC141540), doxorubicin (NSC123127), gemcitabine (NSC613327), 5-fluorouracil (NSC19893), paclitaxel (NSC125973), vemurafenib (NSC761431), MSA-2 (NSC828583), SN-011 (NSC837082), adavosertib (NSC754352), prexasertib (NSC758257), carboplatin (NSC241240) and oxaliplatin (NSC266046), were obtained from the National Cancer Institute (NCI) Developmental Therapeutics Program Chemical Repository (21). The FDA-approved anticancer drug set is available from the Developmental Therapeutics Program at https://dtp.cancer.gov/organization/dscb/obtaining/. […] The stock solutions were prepared in dimethyl sulfoxide (DMSO, Sigma-Aldrich, St. Louis, MO, cat. D2650), except for the platinum compounds which were prepared in saline (Quality Biological, Gaithersburg, MD, cat. 114-055-101), at 800-fold the tested concentration and stored at -70 degrees C prior to their use. All drugs and investigational agents were tested over a range starting from a high concentration at or near the clinical Cmax and decreasing in half-log increments. If the clinical Cmax for an agent had not been determined, the highest concentration tested was 10 microM, except for SN-38, which was tested at a high concentration of 1 microM.
Cell Culture. All cells were maintained in an incubator at 37 degrees C and 5% CO2 with 95% humidity. The PDC lines were cultured according to standard operating procedures established by the NCI PDMR (https://pdmr.cancer.gov). Table 3 of the manuscript, lists the cell lines along with the number of the three cell types plated to form the mct-spheroids and media for tumor cell growth. After thawing, all PDC lines, except 997537-175-T-J1-PDC and 415267-285-R-J2-PDC, were cultured in Matrigel-coated flasks prepared with a working solution of 1X Ham's F-12 nutrient mix, without supplementation (Thermo Fisher Scientific, cat. 11765054), 100 U/mL penicillin-streptomycin (Thermo Fisher Scientific, cat. 15140122), and 2.5% Matrigel (Corning Inc., Corning, NY, cat. 354248) for the first three passages. The two PDC lines 997537-175-T-J1-PDC and 415267-285-R-J2-PDC were cultured on uncoated flasks. The 857933-349-R-J2-PDC line was cultured in 6C/Colon 1B media containing advanced DMEM/F-12 (Thermo Fisher Scientific, cat. 12634028), 10 mM HEPES (Thermo Fisher Scientific, cat. 15630080), 1X GlutaMAX supplement (Thermo Fisher Scientific, cat. 35050061), 0.1 mg/mL primocin (InvivoGen, San Diego, CA, cat. ant-pm-2), 10% defined fetal bovine serum, heat inactivated (HyClone Laboratories Inc., Logan, UT, cat. SH30070.03HI), 50% L-WRN conditioned media (ATCC, cat. CRL-3276), 1.25 mM N-Acetyl-L-cysteine (Sigma-Aldrich, cat. A9165), 10 mM nicotinamide (Sigma-Aldrich, cat. N0636), 1X B-27 supplement (Thermo Fisher Scientific, cat. 17504044), 1X N-2 supplement (Thermo Fisher Scientific, cat. […]
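Further: spheroids exposed to compounds for seven days.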
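Wherever viability, T/C is given: 100% = DMSO vehicle control viability.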

SMILES: O=C(Nc1ccc(O)c(NS(=O)(=O)c2ccc(F)cc2)c1)c1ccc(-c2ccccc2)cc1 + Nc1ccc(C#CCN(C(=O)Cc2ncc(C(F)(F)F)cc2C(F)(F)F)c2ccc(F)cc2)nn1
- IC50 (second compound 0.0316 µM): > 10 µM
- IC50 (second compound 0.1 µM): > 10 µM
- IC50 (second compound 0.316 µM): > 10 µM
- IC50 (second compound 1 µM): > 10 µM
- IC50 (second compound 3.16 µM): > 10 µM
- IC50 (second compound 10 µM): > 10 µM
- viability, T/C (second compound 0.0316 µM, first compound 0.0316 µM): 118%
- viability, T/C (second compound 0.0316 µM, first compound 0.1 µM): 101%
- viability, T/C (second compound 0.0316 µM, first compound 0.316 µM): 83.9%
- viability, T/C (second compound 0.0316 µM, first compound 1 µM): 110%
- viability, T/C (second compound 0.0316 µM, first compound 3.16 µM): 127%
- viability, T/C (second compound 0.0316 µM, first compound 10 µM): 72%
- viability, T/C (second compound 0.1 µM, first compound 0.0316 µM): 104%
- viability, T/C (second compound 0.1 µM, first compound 0.1 µM): 90.7%
- viability, T/C (second compound 0.1 µM, first compound 0.316 µM): 94.1%
- viability, T/C (second compound 0.1 µM, first compound 1 µM): 126%
- viability, T/C (second compound 0.1 µM, first compound 3.16 µM): 129%
- viability, T/C (second compound 0.1 µM, first compound 10 µM): 87.3%
- viability, T/C (second compound 0.316 µM, first compound 0.0316 µM): 96.2%
- viability, T/C (second compound 0.316 µM, first compound 0.1 µM): 82.1%
- viability, T/C (second compound 0.316 µM, first compound 0.316 µM): 110%
- viability, T/C (second compound 0.316 µM, first compound 1 µM): 105%
- viability, T/C (second compound 0.316 µM, first compound 3.16 µM): 134%
- viability, T/C (second compound 0.316 µM, first compound 10 µM): 73%
- viability, T/C (second compound 1 µM, first compound 0.0316 µM): 117%
- viability, T/C (second compound 1 µM, first compound 0.1 µM): 84.7%
- viability, T/C (second compound 1 µM, first compound 0.316 µM): 97.7%
- viability, T/C (second compound 1 µM, first compound 1 µM): 148%
- viability, T/C (second compound 1 µM, first compound 3.16 µM): 119%
- viability, T/C (second compound 1 µM, first compound 10 µM): 78.4%
- viability, T/C (second compound 3.16 µM, first compound 0.0316 µM): 105%
- viability, T/C (second compound 3.16 µM, first compound 0.1 µM): 83.4%
- viability, T/C (second compound 3.16 µM, first compound 0.316 µM): 135%
- viability, T/C (second compound 3.16 µM, first compound 1 µM): 139%
- viability, T/C (second compound 3.16 µM, first compound 3.16 µM): 127%
- viability, T/C (second compound 3.16 µM, first compound 10 µM): 64.1%
- viability, T/C (second compound 10 µM, first compound 0.0316 µM): 110%
- viability, T/C (second compound 10 µM, first compound 0.1 µM): 88%
- viability, T/C (second compound 10 µM, first compound 0.316 µM): 118%
- viability, T/C (second compound 10 µM, first compound 1 µM): 113%
- viability, T/C (second compound 10 µM, first compound 3.16 µM): 101%
- viability, T/C (second compound 10 µM, first compound 10 µM): 81%
